The text below walks through data of ChEMBL document CHEMBL5465560, “Selectivity Literature for EUbOPEN Chemogenomic Library” (2024).

The target in series [1] is Bromodomain-containing protein 4 (Homo sapiens, UniProt O60885). Put plainly: Selectivity interaction (AlphaScreen binding assay) EUB0001632a BRD4. On the technique in general: Alpha assays give light when donor and acceptor beads are brought close together.
Series [2] concerns the target Ribosomal protein S6 kinase alpha-2 (Homo sapiens) (UniProt Q15349). Kind of series: Selectivity interaction (Kinase panel (Z-LYTE Assay)) EUB0001632a RPS6KA2. As to conditions: at 10 µM.
Series [3] concerns the target N-lysine methyltransferase SMYD2 (Homo sapiens) (UniProt Q9NRG4). Kind of series: Selectivity interaction (Methyltransferase screen (radiometric assays, panel of 8 PRMTs, 21 protein lysine methyltransferases, 3 DNA methyltransferases, and one RNA methyltransferase)) EUB0000271b SMYD2.
In series [4] the target is Voltage-gated inwardly rectifying potassium channel KCNH2 (Homo sapiens, UniProt Q12809). Kind of series: Selectivity interaction (Panel of non-epigenetic targets (kinases, GPCRs, ion channels, and transporters, Eurofins) ) EUB0000271b KCNH2. Particulars: at 1 µM.
In series [5] the target is Dual specificity testis-specific protein kinase 1 (Homo sapiens) (UniProt Q15569). As to conditions: at 10 µM.
For series [6], the target named is Mitogen-activated protein kinase 10 (Homo sapiens, UniProt P53779). Put plainly: Selectivity interaction (KinomeScan (DiscoverX)) EUB0000666a MAPK10. Particulars: at 10 µM.
The target of series [7] is Protein arginine N-methyltransferase 3 (Homo sapiens, UniProt O60678). As to conditions: at 10 µM.
In series [8] the target is Serine/threonine-protein kinase 38 (Homo sapiens) (UniProt Q15208). Kind of series: Selectivity interaction (KinomeScan (DiscoverX)) EUB0000229b STK38. As to conditions: at 10 µM.
Series [9] has as its target Serine/threonine-protein kinase MRCK gamma (Homo sapiens) (UniProt Q6DT37). Put plainly: Selectivity interaction (KinomeScan (DiscoverX)) EUB0000229b CDC42BPG. As to conditions: at 10 µM.
The target of series [10] is Serine/threonine-protein kinase pim-1 (Homo sapiens, UniProt P11309). Put plainly: Selectivity interaction (KinomeScan (DiscoverX)) EUB0001079a PIM1. Particulars: at 1 µM.
Series [11] has as its target Ribosomal protein S6 kinase alpha-1 (Homo sapiens, UniProt Q15418). Put plainly: Selectivity interaction (ActivX KiNativ screen (ex vivo kinase selectivity in human PBMCs)) EUB0001619a RPS6KA1. The class given is cell-based. Particulars: PBMC, at 1 µM.
Series [12] has as its target Receptor-type tyrosine-protein kinase FLT3 (Homo sapiens) (UniProt P36888). Particulars: at 10 µM.
Another series deals with Activated CDC42 kinase 1 (Homo sapiens, UniProt Q07912).
Another series concerns the target Focal adhesion kinase 1 (Homo sapiens, UniProt Q05397). Kind of series: Selectivity interaction (KinomeScan (DiscoverX)) EUB0001049a PTK2. As to conditions: at 1 µM.
The test system of series [13] is eIF-2-alpha kinase GCN2 (Homo sapiens), Q9P2K8 [S808G]. Put plainly: Selectivity interaction (KinomeScan (DiscoverX)) EUB0000695a EIF2AK4. Particulars: at 100 nM.
Series [14] addresses Transcription initiation factor TFIID subunit 1 (Homo sapiens) (UniProt P21675). Put plainly: Selectivity interaction (Human bromodomain panel (DSF assay)) EUB0000233b TAF1. In general terms: DSF heats the sample and reads unfolding from a dye or from intrinsic fluorescence.
In series [15] the target is Dual specificity protein kinase CLK2 (Homo sapiens, UniProt P49760). Kind of series: Selectivity interaction (KinomeScan (DiscoverX)) EUB0001550a CLK2. Particulars: at 1 µM.
Series [16] has as its target BMP-2-inducible protein kinase (Homo sapiens) (UniProt Q9NSY1). Put plainly: Selectivity interaction (KinomeScan (DiscoverX)) EUB0000045b BMP2K.
Series [17] has as its target Macrophage-stimulating protein receptor (Homo sapiens, UniProt Q04912). Put plainly: Selectivity interaction (KinomeScan (DiscoverX)) EUB0000045b MST1R.
Series [18] has as its target T1, Serine/threonine-protein kinase TBK1 (Homo sapiens) (UniProt Q9UHD2).
T1 sequence (whole entry): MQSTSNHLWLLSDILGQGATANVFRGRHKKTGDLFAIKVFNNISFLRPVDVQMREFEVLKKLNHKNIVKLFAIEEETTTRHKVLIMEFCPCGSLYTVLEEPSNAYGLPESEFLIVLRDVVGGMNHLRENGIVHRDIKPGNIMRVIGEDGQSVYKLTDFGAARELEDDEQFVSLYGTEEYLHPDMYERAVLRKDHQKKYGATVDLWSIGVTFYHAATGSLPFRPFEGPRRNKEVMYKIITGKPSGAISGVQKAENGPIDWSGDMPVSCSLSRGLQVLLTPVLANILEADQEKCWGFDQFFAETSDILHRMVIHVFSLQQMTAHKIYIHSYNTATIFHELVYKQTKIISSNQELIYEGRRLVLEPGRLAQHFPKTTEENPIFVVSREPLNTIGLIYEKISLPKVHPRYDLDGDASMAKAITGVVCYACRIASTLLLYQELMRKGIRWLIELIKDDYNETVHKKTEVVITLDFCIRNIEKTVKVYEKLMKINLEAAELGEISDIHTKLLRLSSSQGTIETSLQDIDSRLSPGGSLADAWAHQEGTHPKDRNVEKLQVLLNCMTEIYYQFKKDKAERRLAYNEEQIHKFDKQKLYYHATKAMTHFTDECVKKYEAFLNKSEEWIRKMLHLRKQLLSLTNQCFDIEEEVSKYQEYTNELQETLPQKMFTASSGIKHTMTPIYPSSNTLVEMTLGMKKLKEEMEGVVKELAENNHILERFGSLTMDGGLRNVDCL
Put plainly: Selectivity interaction (KinomeScan (DiscoverX)) EUB0000045b TBK1.

Series [19] relates to Tyrosine-protein kinase ABL1 (Homo sapiens), P00519 [H396P]. Put plainly: Selectivity interaction (KinomeScan (DiscoverX)) EUB0000045b ABL1. As to conditions: at 1 µM.
The target of series [20] is Ribosomal protein S6 kinase alpha-6 (Homo sapiens, UniProt Q9UK32). Kind of series: Selectivity interaction (KinomeScan (DiscoverX)) EUB0000618a RPS6KA6. Particulars: at 10 µM.

Molecules are shown by their SMILES. A value given as a limit tells only on which side of the number the result lay.

BMP-2-inducible protein kinase (Homo sapiens), sequence (Q9NSY1 whole entry, looked up): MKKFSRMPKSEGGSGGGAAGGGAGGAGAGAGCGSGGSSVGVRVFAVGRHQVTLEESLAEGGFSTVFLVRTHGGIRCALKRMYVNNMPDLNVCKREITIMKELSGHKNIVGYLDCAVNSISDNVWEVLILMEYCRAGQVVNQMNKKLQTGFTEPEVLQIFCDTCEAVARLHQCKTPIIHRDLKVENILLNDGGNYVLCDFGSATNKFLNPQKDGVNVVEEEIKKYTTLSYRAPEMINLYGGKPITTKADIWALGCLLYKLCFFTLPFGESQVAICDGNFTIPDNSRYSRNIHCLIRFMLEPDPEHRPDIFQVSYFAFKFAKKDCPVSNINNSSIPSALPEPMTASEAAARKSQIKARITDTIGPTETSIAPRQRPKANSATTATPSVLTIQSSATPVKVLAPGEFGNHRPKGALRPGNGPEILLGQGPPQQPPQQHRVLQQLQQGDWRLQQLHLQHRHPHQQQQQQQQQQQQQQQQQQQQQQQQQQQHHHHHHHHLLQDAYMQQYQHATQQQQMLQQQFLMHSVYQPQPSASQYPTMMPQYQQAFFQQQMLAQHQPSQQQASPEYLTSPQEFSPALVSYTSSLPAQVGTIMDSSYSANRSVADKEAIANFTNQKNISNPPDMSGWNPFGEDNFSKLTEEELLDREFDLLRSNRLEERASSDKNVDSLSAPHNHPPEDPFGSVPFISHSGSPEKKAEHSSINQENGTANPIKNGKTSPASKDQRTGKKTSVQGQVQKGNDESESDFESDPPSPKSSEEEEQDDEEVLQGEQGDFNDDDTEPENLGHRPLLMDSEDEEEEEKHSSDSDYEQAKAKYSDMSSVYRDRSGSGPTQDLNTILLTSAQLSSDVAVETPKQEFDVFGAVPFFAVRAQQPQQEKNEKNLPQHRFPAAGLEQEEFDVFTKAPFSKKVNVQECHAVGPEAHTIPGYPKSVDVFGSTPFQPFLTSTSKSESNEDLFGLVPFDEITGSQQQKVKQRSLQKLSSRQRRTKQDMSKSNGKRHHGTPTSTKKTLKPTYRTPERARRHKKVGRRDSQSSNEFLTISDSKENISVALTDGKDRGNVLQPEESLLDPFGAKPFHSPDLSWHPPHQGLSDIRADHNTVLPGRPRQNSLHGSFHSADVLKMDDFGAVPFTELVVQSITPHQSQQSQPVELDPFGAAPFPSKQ
Macrophage-stimulating protein receptor, sequence (Q04912 25-304 limits assumed): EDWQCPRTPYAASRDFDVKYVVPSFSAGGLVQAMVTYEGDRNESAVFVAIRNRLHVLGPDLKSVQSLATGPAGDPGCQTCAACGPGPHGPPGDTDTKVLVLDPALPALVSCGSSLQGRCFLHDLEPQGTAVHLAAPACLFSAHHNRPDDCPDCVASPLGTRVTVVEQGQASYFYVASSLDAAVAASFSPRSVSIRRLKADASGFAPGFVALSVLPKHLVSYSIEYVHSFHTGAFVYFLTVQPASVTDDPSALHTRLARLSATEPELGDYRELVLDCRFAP
Macrophage-stimulating protein receptor, sequence (Q04912 310-1400 limits assumed): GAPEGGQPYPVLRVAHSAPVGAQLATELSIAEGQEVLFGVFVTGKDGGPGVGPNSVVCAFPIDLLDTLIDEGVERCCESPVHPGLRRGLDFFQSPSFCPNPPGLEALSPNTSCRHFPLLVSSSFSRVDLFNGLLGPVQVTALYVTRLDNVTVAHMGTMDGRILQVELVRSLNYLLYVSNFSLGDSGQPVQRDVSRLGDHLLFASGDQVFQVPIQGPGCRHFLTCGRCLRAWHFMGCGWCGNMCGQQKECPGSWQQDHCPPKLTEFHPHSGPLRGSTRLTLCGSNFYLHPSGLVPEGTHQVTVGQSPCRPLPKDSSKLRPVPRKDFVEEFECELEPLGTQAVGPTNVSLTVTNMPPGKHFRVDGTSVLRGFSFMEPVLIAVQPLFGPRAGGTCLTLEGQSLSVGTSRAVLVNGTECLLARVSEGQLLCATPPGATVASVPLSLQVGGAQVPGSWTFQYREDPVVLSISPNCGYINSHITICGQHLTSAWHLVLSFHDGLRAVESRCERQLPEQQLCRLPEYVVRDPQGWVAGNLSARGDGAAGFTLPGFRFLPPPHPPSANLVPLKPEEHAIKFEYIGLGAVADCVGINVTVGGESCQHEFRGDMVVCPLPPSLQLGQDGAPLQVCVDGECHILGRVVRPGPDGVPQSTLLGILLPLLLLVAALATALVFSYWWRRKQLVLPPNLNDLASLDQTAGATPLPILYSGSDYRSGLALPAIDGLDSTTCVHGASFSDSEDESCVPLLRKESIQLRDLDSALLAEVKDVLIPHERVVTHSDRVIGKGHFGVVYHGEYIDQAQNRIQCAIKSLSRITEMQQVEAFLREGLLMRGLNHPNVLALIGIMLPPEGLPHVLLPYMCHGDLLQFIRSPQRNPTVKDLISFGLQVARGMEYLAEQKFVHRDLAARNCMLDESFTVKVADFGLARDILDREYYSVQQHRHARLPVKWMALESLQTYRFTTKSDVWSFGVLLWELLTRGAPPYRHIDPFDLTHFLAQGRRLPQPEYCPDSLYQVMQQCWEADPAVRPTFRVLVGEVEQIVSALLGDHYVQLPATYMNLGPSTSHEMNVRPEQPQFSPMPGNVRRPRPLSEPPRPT
N-lysine methyltransferase SMYD2 (Homo sapiens), sequence (Q9NRG4 whole entry): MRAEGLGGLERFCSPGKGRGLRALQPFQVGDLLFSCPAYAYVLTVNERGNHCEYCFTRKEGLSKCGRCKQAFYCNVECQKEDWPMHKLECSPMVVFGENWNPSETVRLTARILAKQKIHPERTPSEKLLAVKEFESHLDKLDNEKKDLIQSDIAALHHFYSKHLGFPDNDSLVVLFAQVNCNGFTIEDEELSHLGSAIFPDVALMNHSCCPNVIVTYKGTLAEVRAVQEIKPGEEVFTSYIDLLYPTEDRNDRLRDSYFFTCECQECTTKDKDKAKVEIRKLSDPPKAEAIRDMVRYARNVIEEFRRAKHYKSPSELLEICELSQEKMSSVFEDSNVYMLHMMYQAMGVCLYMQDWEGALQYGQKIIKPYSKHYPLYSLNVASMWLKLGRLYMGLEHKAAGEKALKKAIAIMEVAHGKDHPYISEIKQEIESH
eIF-2-alpha kinase GCN2 (Homo sapiens), Q9P2K8 [S808G], sequence (Q9P2K8 whole entry S808G): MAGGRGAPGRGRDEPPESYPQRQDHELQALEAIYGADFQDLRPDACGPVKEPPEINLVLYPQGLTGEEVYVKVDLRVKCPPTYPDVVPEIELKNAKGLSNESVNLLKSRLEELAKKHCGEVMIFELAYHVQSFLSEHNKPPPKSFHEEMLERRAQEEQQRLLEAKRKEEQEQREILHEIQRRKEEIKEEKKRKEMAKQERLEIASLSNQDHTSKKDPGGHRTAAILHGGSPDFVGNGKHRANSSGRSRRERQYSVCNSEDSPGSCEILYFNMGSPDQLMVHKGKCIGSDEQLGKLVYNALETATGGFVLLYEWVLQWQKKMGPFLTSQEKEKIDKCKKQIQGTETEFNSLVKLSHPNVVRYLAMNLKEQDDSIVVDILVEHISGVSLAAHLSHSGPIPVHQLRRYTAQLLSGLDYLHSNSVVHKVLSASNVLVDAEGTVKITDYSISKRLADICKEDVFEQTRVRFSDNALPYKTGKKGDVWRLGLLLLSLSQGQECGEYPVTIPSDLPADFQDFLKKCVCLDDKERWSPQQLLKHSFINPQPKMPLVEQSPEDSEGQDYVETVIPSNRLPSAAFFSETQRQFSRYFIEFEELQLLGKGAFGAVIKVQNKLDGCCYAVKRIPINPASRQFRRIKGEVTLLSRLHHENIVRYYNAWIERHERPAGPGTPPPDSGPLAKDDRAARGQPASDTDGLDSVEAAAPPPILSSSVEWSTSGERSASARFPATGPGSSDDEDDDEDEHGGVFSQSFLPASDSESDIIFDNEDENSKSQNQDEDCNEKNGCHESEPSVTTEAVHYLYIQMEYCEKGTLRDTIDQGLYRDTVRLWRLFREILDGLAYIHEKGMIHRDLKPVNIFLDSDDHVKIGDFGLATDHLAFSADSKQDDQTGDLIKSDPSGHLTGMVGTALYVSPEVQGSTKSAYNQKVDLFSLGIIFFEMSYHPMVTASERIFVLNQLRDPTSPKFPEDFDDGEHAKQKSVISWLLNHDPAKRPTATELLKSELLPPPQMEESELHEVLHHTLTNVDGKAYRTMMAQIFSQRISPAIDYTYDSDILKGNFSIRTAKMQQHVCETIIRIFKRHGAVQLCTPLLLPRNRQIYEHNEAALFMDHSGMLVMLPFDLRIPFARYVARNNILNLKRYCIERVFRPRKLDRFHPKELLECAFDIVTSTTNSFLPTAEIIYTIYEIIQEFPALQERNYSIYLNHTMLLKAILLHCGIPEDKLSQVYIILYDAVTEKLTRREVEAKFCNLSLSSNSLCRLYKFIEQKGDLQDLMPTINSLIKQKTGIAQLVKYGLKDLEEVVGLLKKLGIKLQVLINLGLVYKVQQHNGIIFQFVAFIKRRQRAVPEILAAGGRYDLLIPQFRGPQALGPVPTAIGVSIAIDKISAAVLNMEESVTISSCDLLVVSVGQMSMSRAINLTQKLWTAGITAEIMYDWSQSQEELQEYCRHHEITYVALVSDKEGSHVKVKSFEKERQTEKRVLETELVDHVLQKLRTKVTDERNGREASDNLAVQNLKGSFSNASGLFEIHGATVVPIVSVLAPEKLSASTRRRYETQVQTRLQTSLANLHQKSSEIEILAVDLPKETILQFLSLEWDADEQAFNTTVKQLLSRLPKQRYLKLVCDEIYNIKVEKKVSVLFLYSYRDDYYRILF
Mitogen-activated protein kinase 10, sequence (P53779 whole entry): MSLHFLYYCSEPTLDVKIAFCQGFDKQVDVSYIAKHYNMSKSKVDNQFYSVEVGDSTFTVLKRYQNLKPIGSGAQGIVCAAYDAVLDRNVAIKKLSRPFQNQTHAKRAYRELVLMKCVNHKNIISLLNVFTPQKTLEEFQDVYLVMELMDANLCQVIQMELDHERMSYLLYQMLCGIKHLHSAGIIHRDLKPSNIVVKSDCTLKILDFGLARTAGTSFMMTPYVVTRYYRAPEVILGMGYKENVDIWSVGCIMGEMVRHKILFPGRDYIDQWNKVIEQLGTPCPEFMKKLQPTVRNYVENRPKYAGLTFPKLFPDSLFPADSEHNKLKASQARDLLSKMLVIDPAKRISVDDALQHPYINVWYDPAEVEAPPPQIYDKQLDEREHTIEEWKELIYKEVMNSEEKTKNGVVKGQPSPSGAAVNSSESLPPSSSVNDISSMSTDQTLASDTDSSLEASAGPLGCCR

Broadly, the IC50 is the point on the concentration scale where inhibition reaches its midpoint. On to `Cn1cc(-n2cnc3c(NCc4nc5cc(Cl)c(Cl)cc5[nH]4)nc(N4CCOCC4)nc32)cn1`, for which, in series [1], the half-inhibitory concentration (IC50) is over 10 µM. The same compound came in with a % of control in [2] of 1.22%.

For the compound `Cc1cc(C)cc([C@@H]2c3cc(C)ccc3NC(=O)CN2C(=O)c2ccc(Br)s2)c1`, the % of activity in series [3] (at 1 µM) amounted to 101%; in series [3] (at 10 µM) it was 96.7%. For the same compound, the “% of inhibition” value in series [4] was found to be 0%.

In turn, `Cc1cc([C@@H](C)Nc2ccccc2C(=O)O)c2nc(N3CCOCC3)cc(=O)n2c1` [AZD-6482] came in with a % of control in series [5] of 100%.

Regarding `O=C(NOC[C@H](O)CO)c1ccc(F)c(F)c1Nc1ccc(I)cc1F`, the % of control in series [6] turned out to be 90%.

As to `CNCCN1CCC(c2cc(CN(C)C(=O)c3cccc(Oc4ccccc4)c3)ccn2)CC1`, in series [7], the % activity is over 90%.

Regarding `COc1cc(N(C)c2ccnc3ccc(C(F)(F)F)cc23)cc(OC)c1OC`, the % binding worked out at 83% in series [8] and 94% in [9].

For `Nc1cnc(N2CCc3cc(S(=O)(=O)Nc4c(F)cc(Cl)cc4F)cc(N4CCCC4=O)c32)nc1` [TP-020n], the % of control in series [10] came out at 88%.

In the case of `N#Cc1cccc(-c2c[nH]c3ncnc(N4CCOCC4)c23)c1`, the % of inhibition in [11] is -3%.

In series [12], `CCN(CC)CCCCNc1ncc2cc(-c3cc(OC)cc(OC)c3)c(NC(=O)NC(C)(C)C)nc2n1` gave a % of control of 100%.

As to `CCc1cccc(CC)c1NC(=O)c1nn(C)c2c1CCc1cnc(Nc3ccc(C(=O)NC4CCN(C)CC4)cc3OC(F)(F)F)nc1-2`, the IC50 on Activated CDC42 kinase 1 was over 10 µM.

In the case of `COc1cc(Nc2nc(C)cc(-c3cnn4nc(OC)ccc34)n2)cc(C(F)(F)F)c1`, the % of control on Focal adhesion kinase 1 was determined as 86%.

For the compound `Cc1cc(F)c(C(=O)Nc2cccc(-c3nncn3C(C)C)n2)cc1-n1cnc(C2CC2)c1`, in series [13], the % of control came out at 77%.

For `CN(C)CCCOc1ccc(-c2cc(NCCCn3cccn3)nc(S(C)(=O)=O)n2)cc1`, in [14], the dTM is under 2 K.

On to `CN(C)CC#Cc1ccc2[nH]c3c(c2c1)-c1nc(N)ncc1CCC3`, for which the % of control in [15] was 20%.

As to `C=CC(=O)Nc1cc(-n2c(=O)ccc3cnc4ccc(-c5ccc(NS(C)(=O)=O)cc5)cc4c32)ccc1C`, the % of control in [16] (at 1 µM) amounted to 76%; in series [16] (at 10 µM), 39%; in series [17] (at 1 µM) it was 100%; in series [17] (at 10 µM) it was 100%; in [18] (at 1 µM) it was 100%; in series [18] (at 10 µM) it was 77%. This compound also displayed a % of control in series [19] of 74%.

As for `O[C@H]1CC[C@H](Nc2ncc3nc(Nc4c(F)cc(F)cc4F)n([C@H]4CCOC4)c3n2)CC1`, the % of control in [20] stood at 13%.
